Laboratory results taken from patent US20190204342A1, “METHODS AND USES OF MITOFUSINS” (NESTEC S.A., priority 2014, published 2019).

Key:
AMPK = AMPK activation in liver after metformin injection (western blot of markers CRTC2, elF2alpha, GAPDH); assay type: in vivo; details: metformin 125 mg/kg; livers taken 90 minutes later; high-fat diet; Mfn1 LKO vs control mice
Method: 12 week old Control and Mfn1 LKO mice were fed for 8 weeks with a high-fat diet (D12492, Research Diets Inc., USA). Then, mice were fasted overnight and injected with either saline (as vehicle) or metformin (125 mg/kg). Mice were sacrificed 90 minutes later and livers were immediately extracted and frozen. Protein extracts were obtained and used for western blot analyses to test the markers of AMPK activation: CRTC2, elF2alpha and GAPDH.

[1] = Hypoglycemic effect of metformin in high-fat diet fed control and Mfn1LKO mice (blood glucose); assay type: in vivo; details: metformin 125 mg/kg injected after overnight fast; 8 weeks high-fat diet; Mfn1LKO vs control mice
Text: 12 week old Control and Mfn1 LKO mice were fed for 8 weeks with a high-fat diet (D12492, Research Diets Inc., USA).

mitochondrial Complex I = assay: Metformin inhibition of mitochondrial respiration (respirometry, metformin titrated); assay type: biochemical; details: liver mitochondria from WT and Mfn1 LKO mice, malate, glutamate, ADP
Method: Freshly extracted mitochondria from WT and Mfn1LKO mice were homogenized in respiration medium and 2 mg of tissue were used for respirometry analyses. In them, complex I activity was stimulated by the addition of malate and glutamate. Then, ADP was added to achieve maximal coupled respiration and metformin was subsequently titrated.
Freshly extracted mitochondria from WT and Mfn1 LKO mice were resuspended in respiration medium and 100 μg of protein were used for respirometry analyses. Complex I activity was stimulated by the addition of malate and glutamate. Then, ADP was added to achieve maximal coupled respiration and metformin was subsequently titrated.

CN(C)C(=N)N=C(N)N [metformin, Metformin]
AMPK activation (markers of AMPK activation) (AMPK): enhanced AMPK activation
hypoglycemic effect (blood glucose levels) [1]: enhanced in Mfn1LKO mice
mitochondrial Complex I respiration inhibition (mitochondrial Complex I): inhibited more in the Mfn1 LKO mice than in the control mice
